Experimental data: patent US20230167088A1, “1-PYRAZINYLPYRAZOLYL-3-OXYALKYL ACIDS AND THEIR DERIVATIVES, AND THEIR USE FOR CONTROL OF UNDESIRED PLANT GROWTH” (BAYER AKTIENGESELLSCHAFT, priority 2020, published 2023)

Columns and labels:
ABUTH = assay: Herbicidal post-emergence action 1b (twin sowing, 1280 g/ha); assay type: in vivo, Abutilon theophrasti; details: dosage 1280 g/ha, visual rating about 3 weeks after treatment
Experimental: [table] b) Seeds of mono- and dicotyledonous weed plants are placed in plastic pots in sandy loam soil (twin sowing with one species each of mono- or dicotyledonous weed plants per pot), covered with soil and cultivated in a greenhouse under controlled growth conditions. 2 to 3 weeks after sowing, the test plants are treated at the one-leaf stage. The compounds of the invention, formulated in the form of wettable powders (WP) or as emulsion concentrates (EC), are applied to the green parts of the plants as aqueous suspension or emulsion with addition of 0.5% additive at a water application rate equivalent to 600 litres per hectare. After the test plants have been kept in the greenhouse under optimum growth conditions for about 3 weeks, the activity of the preparations is rated visually in comparison to untreated controls. For example, 100% activity=the plants have died, 0% activity=like control plants. Tables A16 to A21 below show the effects of selected compounds of the general formula (I) according to Tables 1 and 2 on various harmful plants and at an application rate corresponding to 1280 g/ha, which were obtained by the experimental procedure mentioned above.

DIGSA [1] = assay: as above; assay type: in vivo, Digitaria sanguinalis; details: dosage 1280 g/ha, visual rating about 3 weeks after treatment
Summary of the method: (§1)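 Post-emergence foliar spray on one-leaf weeds grown two species per pot in sandy loam; ~3 weeks later, visual rating from 0% (as control) to 100% (plants died).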

POAAN [2] = assay: as above; assay type: in vivo, Poa annua; details: dosage 1280 g/ha, visual rating about 3 weeks after treatment
Summary of the method: as §1

VERPE [3] = assay: Herbicidal pre-emergence action 2a (greenhouse pots, visual scoring); assay type: in vivo, Veronica persica; details: dosage 320 g/ha, visual scoring after about 3 weeks vs untreated controls
Summary of the method: (§2)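 Visual scoring after roughly 3 weeks, as percent effect relative to untreated pots (0% = like control, 100% = dead). Seeds were covered with soil, then the surface received aqueous WP/EC suspension or emulsion (0.5% additive, 600 l/ha) at 320 and/or 80 g/ha.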

STEME [4] = assay: Herbicidal pre-emergence action 2b (doubly sown, 1280 g/ha); assay type: in vivo, Stellaria media; details: doubly sown pots, dosage 1280 g/ha, visual scoring after about 3 weeks
Summary of the method: (§3)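 Seeds are placed in sandy loam and covered, then the formulated compound is applied to the covering soil in water equivalent to 600 litres per hectare with 0.5% additive. Pots stay in the greenhouse under good growth conditions. Activity is rated visually as a percentage of untreated controls after about three weeks.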

POAAN [5] = assay: as above; assay type: in vivo, Poa annua; details: doubly sown pots, dosage 1280 g/ha, visual scoring after about 3 weeks
Summary of the method: as §3

MATIN [6] = assay: as above; assay type: in vivo, Matricaria inodora; details: doubly sown pots, dosage 1280 g/ha, visual scoring after about 3 weeks
Summary of the method: as §3

ALOMY [7] = assay: Herbicidal post-emergence action 1a (greenhouse pots, visual rating); assay type: in vivo, Alopecurus myosuroides; details: rated visually about 3 weeks after treatment, 100% = plants have died, 0% = like control plants
Summary of the method: (§4)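 Weeds and crops sown in sandy loam in greenhouse pots were sprayed post-emergence at the one-leaf stage (2–3 weeks after sowing) with WP or EC formulations plus 0.5% additive at 600 l/ha water, 320 and/or 80 g/ha. About 3 weeks later damage was rated visually against untreated controls (0% = no effect, 100% = dead).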

ECHCG [8] = assay: Herbicidal pre-emergence action 2a (greenhouse pots, visual scoring); assay type: in vivo, Echinochloa crus-galli; details: dosage 320 g/ha, visual scoring after about 3 weeks
From the text: (§5) [table] a) Seeds of monocotyledonous and dicotyledonous weed plants and crop plants are placed in plastic or organic plant pots and covered with soil. The compounds of the invention, formulated in the form of wettable powders (WP) or as emulsion concentrates (EC), are then applied onto the surface of the covering soil as aqueous suspension or emulsion with addition of 0.5% additive at a water application rate of 600 1/ha (converted). After the treatment, the pots are placed in a greenhouse and kept under good growth conditions for the trial plants. After about 3 weeks, the effect of the preparations is scored visually in comparison with untreated controls as percentages. For example, 100% activity=the plants have died, 0% activity=like control plants. Tables B1 to B15 below show the effects of selected compounds of the general formula (I) according to Tables 1 and 2 on various harmful plants and an application rate corresponding to 320 g/ha and/or 80 g/ha, which were obtained by the experimental procedure mentioned above.

ECHCG [9] = assay: Herbicidal pre-emergence action 2b (doubly sown, 1280 g/ha); assay type: in vivo, Echinochloa crus-galli; details: doubly sown pots, dosage 1280 g/ha, visual scoring after about 3 weeks
Summary of the method: as §3

SETVI = assay: Herbicidal pre-emergence action 2a (greenhouse pots, visual scoring); assay type: in vivo, Setaria viridis; details: dosage 320 g/ha, visual scoring after about 3 weeks vs untreated controls
Summary of the method: as §2

ECHCG [10] = assay: Herbicidal post-emergence action 1b (twin sowing, 1280 g/ha); assay type: in vivo, Echinochloa crus-galli; details: dosage 1280 g/ha, visual rating about 3 weeks after treatment
Summary of the method: as §1

STEME [11] = assay: as above; assay type: in vivo, Stellaria media; details: dosage 1280 g/ha, visual rating about 3 weeks after treatment
Summary of the method: as §1

AMARE [12] = assay: Herbicidal pre-emergence action 2b (doubly sown, 1280 g/ha); assay type: in vivo, Amaranthus retroflexus; details: doubly sown pots, dosage 1280 g/ha, visual scoring after about 3 weeks
Summary of the method: as §3

ALOMY [13] = assay: Herbicidal pre-emergence action 2a (greenhouse pots, visual scoring); assay type: in vivo, Alopecurus myosuroides; details: dosage 320 g/ha, visual scoring after about 3 weeks
Summary of the method: as §2

AVEFA = assay: as above; assay type: in vivo, Avena fatua; details: dosage 320 g/ha, visual scoring after about 3 weeks
Summary of the method: as §2

DIGSA [14] = assay: Herbicidal pre-emergence action 2b (doubly sown, 1280 g/ha); assay type: in vivo, Digitaria sanguinalis; details: doubly sown pots, dosage 1280 g/ha, visual scoring after about 3 weeks
Summary of the method: as §3

VIOTR [15] = assay: Herbicidal pre-emergence action 2a (greenhouse pots, visual scoring); assay type: in vivo, Viola tricolor; details: dosage 320 g/ha, visual scoring after about 3 weeks vs untreated controls
Summary of the method: as §2

POLCO = assay: as above; assay type: in vivo, Polygonum convolvulus; details: dosage 320 g/ha, visual scoring after about 3 weeks vs untreated controls
Summary of the method: as §2

MATIN [16] = assay: Herbicidal post-emergence action 1b (twin sowing, 1280 g/ha); assay type: in vivo, Matricaria inodora; details: dosage 1280 g/ha, visual rating about 3 weeks after treatment
Summary of the method: as §1

PHBPU [17] = assay: Herbicidal pre-emergence action 2a (greenhouse pots, visual scoring); assay type: in vivo, Pharbitis purpurea; details: dosage 320 g/ha, visual scoring after about 3 weeks vs untreated controls
From the text: as §5

AMARE [18] = assay: as above; assay type: in vivo, Amaranthus retroflexus; details: dosage 320 g/ha, visual scoring after about 3 weeks vs untreated controls
Summary of the method: as §2

MATIN [19] = assay: as above; assay type: in vivo, Matricaria inodora; details: dosage 320 g/ha, visual scoring after about 3 weeks vs untreated controls
Summary of the method: as §2

ECHCG [20] = assay: Herbicidal post-emergence action 1a (greenhouse pots, visual rating); assay type: in vivo, Echinochloa crus-galli; details: rated visually about 3 weeks after treatment, 100% = plants have died, 0% = like control plants
Summary of the method: as §4

PHBPU [21] = assay: as above; assay type: in vivo, Pharbitis purpurea; details: visual rating about 3 weeks after treatment
Summary of the method: as §4

LOLRI = assay: Herbicidal pre-emergence action 2a (greenhouse pots, visual scoring); assay type: in vivo, Lolium rigidum; details: dosage 320 g/ha, visual scoring after about 3 weeks vs untreated controls
Summary of the method: as §2

STEME [22] = assay: Herbicidal post-emergence action 1a (greenhouse pots, visual rating); assay type: in vivo, Stellaria media; details: Dosage 320 g/ha; rated visually about 3 weeks after treatment; 100% = plants have died, 0% = like control plants
Experimental: (§6) [table] a) Seeds of monocotyledonous and dicotyledonous weeds and crop plants are placed in sandy loam in plastic or organic plant pots, covered with soil and cultivated in a greenhouse under controlled growth conditions. 2 to 3 weeks after sowing, the test plants are treated at the one-leaf stage. The compounds of the invention, formulated in the form of wettable powders (WP) or as emulsion concentrates (EC), are then sprayed onto the green parts of the plants as aqueous suspension or emulsion with addition of 0.5% additive at a water application rate of 600 1/ha (converted). After the test plants have been kept in the greenhouse under optimum growth conditions for about 3 weeks, the activity of the preparations is rated visually in comparison to untreated controls. For example, 100% activity=the plants have died, 0% activity=like control plants. Tables A1 to A15 below show the effects of selected compounds of the general formula (I) according to Tables 1 and 2 on various harmful plants and an application rate corresponding to 320 g/ha and/or 80 g/ha, which were obtained by the experimental procedure mentioned above.

VERPE [23] = assay: as above; assay type: in vivo, Veronica persica; details: dosage 320 g/ha, visual rating about 3 weeks after treatment
Summary of the method: as §4

AMARE [24] = assay: as above; assay type: in vivo, Amaranthus retroflexus; details: dosage 320 g/ha, visual rating about 3 weeks after treatment
Summary of the method: as §4

DIGSA [25] = assay: Herbicidal pre-emergence action 2a (greenhouse pots, visual scoring); assay type: in vivo, Digitaria sanguinalis; details: dosage 320 g/ha, visual scoring after about 3 weeks
Summary of the method: as §2

MATIN [26] = assay: Herbicidal post-emergence action 1a (greenhouse pots, visual rating); assay type: in vivo, Matricaria inodora; details: dosage 320 g/ha, visual rating about 3 weeks after treatment
Experimental: as §6

VIOTR [27] = assay: as above; assay type: in vivo, Viola tricolor; details: dosage 320 g/ha, visual rating about 3 weeks after treatment
Summary of the method: as §4

SMILES | Post-emergence action at 1280 g/ha against ABUTH in % (ABUTH) [%] | Post-emergence action at 1280 g/ha against DIGSA in % (DIGSA [1]) [%] | Post-emergence action at 1280 g/ha against POAAN in % (POAAN [2]) [%] | Pre-emergence action against VERPE in % (VERPE [3]) [%] | Pre-emergence action at 1280 g/ha against STEME in % (STEME [4]) [%] | Pre-emergence action at 1280 g/ha against POAAN in % (POAAN [5]) [%] | Pre-emergence action at 1280 g/ha against MATIN in % (MATIN [6]) [%] | Post-emergence action against ALOMY in % (ALOMY [7]; Dosage 80 g/ha) [%] | Pre-emergence action against ECHCG in % (ECHCG [8]) [%] | Pre-emergence action at 1280 g/ha against ECHCG in % (ECHCG [9]) [%] | Pre-emergence action against SETVI in % (SETVI) [%] | Post-emergence action at 1280 g/ha against ECHCG in % (ECHCG [10]) [%] | Post-emergence action at 1280 g/ha against STEME in % (STEME [11]) [%] | Pre-emergence action at 1280 g/ha against AMARE in % (AMARE [12]) [%] | Pre-emergence action against ALOMY in % (ALOMY [13]) [%] | Pre-emergence action against AVEFA in % (AVEFA) [%] | Pre-emergence action at 1280 g/ha against DIGSA in % (DIGSA [14]) [%] | Post-emergence action at 1280 g/ha against MATIN in % (MATIN [16]) [%] | Pre-emergence action against AMARE in % (AMARE [18]) [%] | Pre-emergence action against MATIN in % (MATIN [19]) [%] | other results
COCCOCCOC(=O)COc1nn(-c2cnccn2)c(-c2ccc(F)nc2)c1Br [Example I-67] | 90 | 100 | 100 | 90 | 100 | 100 | 100 | 90 | 90 | 100 | 90 | 90 | 90 | 100 | 100 | 80 | 100 | 100 | 100 | 80 | Pre-emergence action against VIOTR in % (VIOTR [15]): 90%; Pre-emergence action against POLCO in % (POLCO): 90%; Pre-emergence action against PHBPU in % (PHBPU [17]): 80%
COCCOC(=O)COc1nn(-c2cnccn2)c(-c2ccc(F)nc2)c1Br [Example I-68] | 100 | 100 | 100 | 90 | 100 | 100 | 100 | 80 | 90 | 100 | 100 | 100 | 100 | 100 | 100 | 90 | 100 | 90 | 100 | 90 | Post-emergence action against ECHCG in % (ECHCG [20]; Dosage 80 g/ha): 80%; Post-emergence action against PHBPU in % (PHBPU [21]; dosage 80 g/ha): 80%; Pre-emergence action against LOLRI in % (LOLRI): 80%; Pre-emergence action against VIOTR in % (VIOTR [15]): 90%; Pre-emergence action against PHBPU in % (PHBPU [17]): 80%
CCOC(=O)COc1nn(-c2cnccn2)c(-c2cccc(F)c2)c1Br [Example I-02] | – | – | 90 | 100 | 100 | 100 | 100 | – | – | 100 | – | 90 | 90 | 100 | – | – | – | 90 | 100 | 90 | Post-emergence action against STEME in % (STEME [22]): 80%; Post-emergence action against VERPE in % (VERPE [23]): 80%; Post-emergence action against AMARE in % (AMARE [24]): 80%; Pre-emergence action against DIGSA in % (DIGSA [25]): 90%; Post-emergence action against ECHCG in % (ECHCG [20]; Dosage 320 g/ha): 80%; Post-emergence action against ALOMY in % (ALOMY [7]; Dosage 320 g/ha): 80%; Post-emergence action against MATIN in % (MATIN [26]): 80%; Post-emergence action against PHBPU in % (PHBPU [21]; dosage 320 g/ha): 90%; Post-emergence action against VIOTR in % (VIOTR [27]): 80%
